Data published in publication PMC9477487, “Multitarget drugs as potential therapeutic agents for alzheimer’s disease. A new family of 5-substituted indazole derivatives as cholinergic and BACE1 inhibitors” (Journal of Enzyme Inhibition and Medicinal Chemistry, 2022).

What was measured:
Raw 264.7 cells [1] = assay: Cell viability (MTT) of Raw 264.7 cells; assay type: cell-based
Procedure: (§1) Cell viability was measured using the 3-(4,5-Dimethylthiazol-2-yl)-2,5-diphenyltetrazolium bromide (MTT) assay, based on the ability of viable cells to reduce yellow MTT to blue formazan. Briefly, cells cultured in 96-well plates and treated with the indicated compounds for 16 h were incubated with MTT (0.5 mg/ml, 4 h) and subsequently solubilised in DMSO. The extent of reduction of MTT was quantified by absorbance measurement at 595 nm according to the manufacturer’s protocol.

BACE1 = biological target: T1, BACE1 (Homo sapiens, UniProt P56817); assay: BACE1 enzymatic FRET assay; assay type: biochemical; details: pH 4.5, mean ± SEM
T1 construct: purchased Invitrogen
Procedure: The BACE1 ([…]) assay was carried out according to the manufacturer’s described protocol which is available from Invitrogen[36].
Briefly, BACE1 in vitro assays were carried out using fluorescence resonance energy transfer (FRET). An APP-based peptide substrate (rhodamine-EVNLDAEFK-quencher, Km of 20 μM) carrying the Swedish mutation and containing rhodamine as a fluorescence donor and a quencher acceptor at each end was used. The intact substrate is weakly fluorescent and becomes highly fluorescent upon enzymatic cleavage. The assays were conducted in 50 mM sodium acetate buffer, pH 4.5, at a final enzyme concentration of 1 U/mL. Inhibitor screening was performed at 10 μM. The mixture was incubated for 60 min at 25 °C under dark conditions and then stopped with 2.5 M sodium acetate. Fluorescence was measured with a FLUOstar Optima (BMG Labtechnologies GmbH, Offenburg, Germany) microplate reader at 545 nm excitation and 585 nm emission. The assay kit was validated by the manufacturer.

BuChE = biological target: T2, BuChE (Homo sapiens, UniProt P06276); assay: Kinetic study of BuChE inhibition (Lineweaver-Burk plots); assay type: biochemical; set-up: key to Type of Inhibition (BuChE): M: mixed
T2 construct: BuChE from human serum (EC 3.1.1.8); purchased Sigma; host or cells: human serum (tissue-derived)
Procedure: To investigate the mechanism of action of the compounds on AChE or BuChE, a kinetic analysis was performed. The experiments were carried out using combinations of four substrate concentrations and three inhibitor concentrations. Double-reciprocal Lineweaver–Burk plots of the data obtained, in which each point is the mean of three different experiments, were analysed.
Competitive inhibitors have the same y-intercept as uninhibited enzymes (since Vmax is unaffected by competitive inhibitors the inverse of Vmax also doesn’t change), but there are different slopes and x-intercepts. Non-competitive inhibition produces plots with the same x-intercept as uninhibited enzyme (Km is unaffected) but different slopes and y-intercepts. Uncompetitive inhibition causes different intercepts on both the y- and x-axes, but the same slope. Mixed inhibitors cause intersects above or below the x-axes.
The Ki, values were determined by fitting the kinetic data to a competitive, non-competitive, or mixed inhibition model by nonlinear regression analysis using GraphPad Prism[35].

BuChE from human serum = biological target: T3, BuChE from human serum (Homo sapiens, UniProt P06276); assay: In vitro BuChE inhibition assay (Ellman); assay type: biochemical; details: mean ± SEM, 3 experiments, butyrylthiocholine substrate
T3 construct: BuChE from human serum (EC 3.1.1.8); purchased Sigma; host or cells: human serum (tissue-derived)
Procedure: (§2) AChE from human erythrocytes (EC 3.1.1.7) (min. 500 units/mg protein in buffered aqueous solution) and BuChE from human serum (EC 3.1.1.8) (3 units/mg protein, lyophilised powder) were purchased from Sigma.
(§3) Compounds were evaluated in 100 mM phosphate buffer pH 8.0 at 30 °C, using acetylthiocholine and butyrylthiocholine (0.4 mM) as substrates, respectively. In both cases, 5,5-dithio-bis(2-nitrobenzoic) acid (DTNB, Ellman’s reagent, 0.2 mM) was used and the values of IC50 were calculated by UV spectroscopy from the absorbance changes at 412 nm. Experiments were performed in triplicate.

[2] = biological target: T4, AChE from human erythrocytes (Homo sapiens, UniProt P22303); assay: In vitro AChE inhibition assay (Ellman); assay type: biochemical; details: for inhibition at 10 µM: 10 µM compound, read-out: AChE percentage of inhibition at 10 µM; for IC50: mean ± SEM, 3 experiments, acetylthiocholine substrate
T4 construct: AChE from human erythrocytes (EC 3.1.1.7); purchased Sigma; host or cells: human erythrocytes (tissue-derived)
Procedure: as §2, §3

[3] = Oxygen radical absorbance capacity assay (ORAC-FL); details: pH 7.4
Procedure: The ORAC-FL method of Ou et al.[37], partially modified by Dávalos et al.[38], was followed, using a FLUOstar Optima (BMG Labtechnologies GmbH, Offenburg, Germany) with 485 excitation and 520 emission filters. 2,2′-Azobis-(amidinopropane) dihydrochloride (AAPH), (±)-6-hydroxy-2,5,7,8-tetramethylchromane-2-carboxylic acid (trolox) and fluorescein (FL) were purchased from Sigma-Aldrich. The reaction was carried out in 75 mM phosphate buffer (pH 7.4) and the final reaction mixture was 200 µL. […] The mixture was pre-incubated for 30 min at 37 °C and then AAPH solution (25 µL, 240 mM) was added rapidly using a multichannel pipette. The microplate was immediately placed in the reader and the fluorescence was recorded every 90 s. for 90 min. The microplate was automatically shaken prior to each reading. Samples were measured at four different concentrations (10^−1 µM). A blank (FL + AAPH in phosphate buffer) instead of the sample solution and four calibration solutions using trolox (10^−1 µM) was also used in each assay. All of the reaction mixtures were prepared in duplicate and at least three independent assays were performed for each sample. Raw data were exported from the Fluostar optima Software to an Excel sheet for further calculations. Antioxidant curves (fluorescence vs. time) were represented and the area under the curve (AUC) is calculated as: AUC =f1/f0+fi/f0+ … +f34/f0+ (f35/f0) where fo = initial fluorescence reading at 0 min and fi = fluorescence reading at time i. The net AUC is obtained by subtracting the AUC of the blank from that of a sample. The relative Trolox equivalent ORAC value is calculated as: Relative ORAC value =[(AUC sample - AUC blank)/(AUCT rolox - AUC blank)](molarity of trolox/molarity of sample)

[4] = test system: SH-SY5Y human neuroblastoma cells; assay: Amyloid-beta peptide neurotoxicity, neuroprotection in SH-SY5Y cells (MTT); assay type: cell-based; details: 10 µM compound added 1 h prior to 5 µM Aβ, 24 h
Procedure: SH-SY5Y human neuroblastoma cells were obtained from American Type Culture Collection. Cells were maintained at 37 °C in a 5% CO2 humidified atmosphere in DMEM-Glutamax supplemented with heat-inactivated 10% foetal bovine serum and 1% penicillin/streptomycin. All experiments with Aβ1–42 used DMEM-Glutamax without phenol in the media.
The compounds were dissolved in 100% dimethyl sulphoxide (DMSO) as a 10 mM stock and diluted with culture medium to final concentrations. Aβ1–42 powder (AnaSpec, Inc., San Jose, CA) was dissolved in acetic acid (0.1 M) obtaining a 2 μg/μL stock. Then Aβ1-42 was oligomerised in no phenol red DMEM for 24 h at 37 °C. The final concentration in cells cultures was 5 μM. All dilutions of stock were prepared fresh before addition to the culture medium.
SH-SY5Y cells were treated with 5 μM Aβ1-42 for 24 h and pre-treated or not for 1 h with increasing concentrations of compounds. After treatment, cultures were processed for a cell viability assay using MTT assay.
as §1

Raw 264.7 cells [5] = assay: Nitrite determination (Griess) in LPS-stimulated Raw 264.7 cells; assay type: cell-based, murine; details: LPS 0.4 µg/mL, 24 h
Procedure: The content of nitrite, one of the end-products of NO oxidation, was monitored by a procedure based on the diazotidation of nitrite by sulphanilic acid (Griess reaction). Twenty-four hours after the incubation of Raw 264.7 cells with 0.4 µg/mL of LPS, 50 µL of sample aliquots were mixed with 50 µL of Griess reagent in 96-well plates and incubated at room temperature for 15 min. The absorbance (520 nm) of the mixture was measured on a microplate reader. The concentration of nitrite was calculated with the linear equation derived from the standard curve generated by known concentrations of sodium nitrite.

T2 sequence (P06276 29-602): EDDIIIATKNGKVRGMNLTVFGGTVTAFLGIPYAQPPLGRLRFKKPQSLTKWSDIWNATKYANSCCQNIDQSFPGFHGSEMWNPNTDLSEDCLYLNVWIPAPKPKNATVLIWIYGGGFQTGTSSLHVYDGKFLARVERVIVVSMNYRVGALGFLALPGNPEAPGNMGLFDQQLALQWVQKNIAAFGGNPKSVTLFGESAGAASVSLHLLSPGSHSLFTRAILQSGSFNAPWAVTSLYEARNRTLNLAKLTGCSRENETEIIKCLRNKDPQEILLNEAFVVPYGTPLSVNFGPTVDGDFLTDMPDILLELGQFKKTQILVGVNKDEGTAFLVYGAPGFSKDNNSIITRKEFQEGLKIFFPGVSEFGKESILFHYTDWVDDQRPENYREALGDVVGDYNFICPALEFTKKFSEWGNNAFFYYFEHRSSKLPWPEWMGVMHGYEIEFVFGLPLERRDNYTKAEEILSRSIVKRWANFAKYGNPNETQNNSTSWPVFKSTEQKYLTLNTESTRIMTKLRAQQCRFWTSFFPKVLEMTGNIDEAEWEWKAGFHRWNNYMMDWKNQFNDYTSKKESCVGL
T3 sequence (P06276 29-602): as above
T4 sequence (P22303 32-617 isoform P22303-2 limits assumed): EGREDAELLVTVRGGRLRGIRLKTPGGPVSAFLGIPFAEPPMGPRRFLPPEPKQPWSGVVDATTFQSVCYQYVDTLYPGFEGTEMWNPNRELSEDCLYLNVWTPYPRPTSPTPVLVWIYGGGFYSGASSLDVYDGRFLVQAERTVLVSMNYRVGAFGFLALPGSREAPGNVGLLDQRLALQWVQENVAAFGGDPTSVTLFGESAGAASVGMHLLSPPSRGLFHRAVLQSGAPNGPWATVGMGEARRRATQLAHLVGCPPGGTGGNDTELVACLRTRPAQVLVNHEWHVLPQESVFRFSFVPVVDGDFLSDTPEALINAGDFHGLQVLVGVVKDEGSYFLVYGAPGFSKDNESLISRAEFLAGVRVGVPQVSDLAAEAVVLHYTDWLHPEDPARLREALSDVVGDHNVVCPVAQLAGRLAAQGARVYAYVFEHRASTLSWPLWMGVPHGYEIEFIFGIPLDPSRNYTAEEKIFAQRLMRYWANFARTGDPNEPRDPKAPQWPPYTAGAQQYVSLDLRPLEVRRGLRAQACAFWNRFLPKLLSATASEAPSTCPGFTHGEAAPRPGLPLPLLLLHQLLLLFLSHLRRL
T1 sequence (P56817 46-501): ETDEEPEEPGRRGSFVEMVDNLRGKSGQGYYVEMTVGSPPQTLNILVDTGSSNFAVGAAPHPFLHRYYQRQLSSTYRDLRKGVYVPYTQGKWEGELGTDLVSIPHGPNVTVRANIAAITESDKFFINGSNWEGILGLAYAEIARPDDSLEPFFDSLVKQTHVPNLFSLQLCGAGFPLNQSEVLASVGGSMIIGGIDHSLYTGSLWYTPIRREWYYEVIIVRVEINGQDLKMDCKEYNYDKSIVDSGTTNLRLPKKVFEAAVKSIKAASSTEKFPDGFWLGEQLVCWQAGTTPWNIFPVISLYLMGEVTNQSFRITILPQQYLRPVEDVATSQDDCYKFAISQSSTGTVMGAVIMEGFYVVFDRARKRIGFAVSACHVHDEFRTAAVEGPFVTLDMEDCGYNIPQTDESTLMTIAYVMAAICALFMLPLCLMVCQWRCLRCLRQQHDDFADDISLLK

Compound: c1ccc(Cn2nc(OCc3cccc4ccccc34)c3cc(NCCCN4CCCCC4)ccc32)cc1 [Compound 1]
- Cytotoxicity on Raw 264.7 cells viability (Raw 264.7 cells [1]; 10 µM): show cytotoxicity
- IC50 (BACE1): 2.7 ± 0.1 µM
- Type of Inhibition (BuChE) (BuChE): M
- IC50 (BuChE from human serum): 3.2 ± 0.5 µM
- inhibition at 10 µM [2]: 23%
- IC50 [2]: > 10 µM
- ORAC (Oxygen Radical Absorbance Capacity) [3]: 1.1 ± 0.1 μmol of Trolox equivalents/μmol of tested compound
- Aβ-induced death of SH-SY5Y cells [4]: significantly reduced cell death

Compound: c1ccc2cc(COc3nn(Cc4ccc5ccccc5c4)c4ccc(NCCCN5CCCCC5)cc34)ccc2c1 [Compound 6]
- Cytotoxicity on Raw 264.7 cells viability (Raw 264.7 cells [1]; 10, 20, 30, 40 µM): did not show any significant cytotoxic effect
- IC50 (BACE1): 3.4 ± 0.2 µM
- LPS-induced NO production (extracellular nitrite) (Raw 264.7 cells [5]; 10 µM compound): able to attenuate LPS-induced NO production
- LPS-induced NO production (extracellular nitrite) (Raw 264.7 cells [5]; 20, 30 and 40 µM compound): inhibited NO production
- Type of Inhibition (BuChE) (BuChE): M
- IC50 (BuChE from human serum): 3.7 ± 0.3 µM
- IC50 [2]: 9 ± 1 µM
- ORAC (Oxygen Radical Absorbance Capacity) [3]: 0 μmol of Trolox equivalents/μmol of tested compound
- Aβ-induced death of SH-SY5Y cells [4]: significantly reduced cell death

Compound: Clc1ccc(Cn2nc(OCc3cccc4ccccc34)c3cc(NCCCN4CCCCC4)ccc32)cc1Cl [Compound 3]
- Cytotoxicity on Raw 264.7 cells viability (Raw 264.7 cells [1]; 10 µM): did not show any significant cytotoxic effect
- IC50 (BACE1): 2.1 ± 0.2 µM
- LPS-induced NO production (extracellular nitrite) (Raw 264.7 cells [5]; 10 µM compound): able to attenuate LPS-induced NO production
- Type of Inhibition (BuChE) (BuChE): M
- IC50 (BuChE from human serum): 0.17 ± 0.05 µM
- inhibition at 10 µM [2]: 38%
- IC50 [2]: > 10 µM
- ORAC (Oxygen Radical Absorbance Capacity) [3]: 0.6 ± 0.1 μmol of Trolox equivalents/μmol of tested compound
- Aβ-induced death of SH-SY5Y cells [4]: significantly reduced cell death

Compound: Clc1ccc(Cn2nc(OCc3ccc4ccccc4c3)c3cc(NCCCN4CCCCC4)ccc32)cc1Cl [Compound 4]
- Cytotoxicity on Raw 264.7 cells viability (Raw 264.7 cells [1]; 10 µM): show cytotoxicity
- IC50 (BACE1): 1.9 ± 0.1 µM
- Type of Inhibition (BuChE) (BuChE): M
- IC50 (BuChE from human serum): 0.57 ± 0.2 µM
- inhibition at 10 µM [2]: 26%
- IC50 [2]: > 10 µM
- ORAC (Oxygen Radical Absorbance Capacity) [3]: 0.7 ± 0.1 μmol of Trolox equivalents/μmol of tested compound
- Aβ-induced death of SH-SY5Y cells [4]: significantly reduced cell death
